Where two headings read alike, the source gives them in different places.
Legend:
[1] = system: CH3/HeJ mice; assay: Mouse Tail Suspension Assay (Acute), TST; assay type: in vivo; conditions: Mus musculus, po, 7 min, p.o., 7-min session
Procedure: In the tail suspension test (TST) for evaluating compounds for anti-depressant activity, mice are suspended by their tails to a metal or plastic rod using clip or scotch tape. The test is usually quite short, 5-7 min, and the amount of time the mice spend immobile is recorded either manually or with an automated device. Agents which have antidepressant activity, decrease the duration of immobility of mice in this test.
The basic apparatus for the tail suspension assay consisted of a yellow plastic chamber (91×45×10 cm) divided for four arenas 25, 20, 20 and 25 cm wide separated by yellow plastic walls 0.75 cm thick. Mice were suspended by their tails using a rubber clip (7 cm long) attached to the plastic rod that was placed on the top of a testing chamber half way through its deep dimension. Each experimental session was videotaped and analyzed for four animals in the real time by computer software (“Depression Scan” Clever Sys Inc.). The computer justification of immobility was calibrated with the use of animals dosed with lorazepam while justification of movement was calibrated with the high dose of desipramine treated animals. Control, vehicle treated animals and animals treated with Compound #8 were analyzed under the calibrated settings. The settings were adjusted separately for dark (CH3/HeJ and C57Bl/6J strains) and white mice (Balb/cJ and A/J strains). A yellow background was used for dark mice and a blue background was used to record movements of white mice.
The ability of a test compound to decrease the duration of immobility, or increase mobility was measured using the TST procedure described above. Acute treatment with clinically effective antidepressants and/or novel compounds that have potential antidepressant properties decrease the duration of immobility and at the same time increases mobility in the TST.
Data were analyzed using GraphPad Prism software (GraphPad Software, Inc. San Diego, Calif.). For the comparison of the effect of different doses for various drugs on immobility in the TST one-way analyses of variance (ANOVA) were used followed by Dunnett's multiple comparison test. […] The ED50 and Emax values were compared using two-way ANOVA and Bonferroni post-hoc test.
Positive controls included duloxetine (DLX), venlafaxine (VLX)and desipramine (DMI) which were dissolved in 0.5% methylcellulose and lorazepam (LOR) which was suspended in 0.5% of methylcellulose in water by sonication. All drugs and vehicles were administered orally (p.o.) by gavage in a volume of 10 mL/kg.
The mice were ordered 5 weeks old and at the beginning of experiment their weight was 20±5 g. Animals were housed in groups of four in plastic cages at an ambient temperature of 21° C. to 23° C. with an automated 12/12 hours light/dark cycle and access to water and a commercial rodent food ad libitum.
Each experiment consisted of seven treatment groups with four animals per group. A total of 28 animals per experiment were used. Every two consecutive experiments (1 & 2, 3 & 4, 5 & 6 and 7 & 8) were exact replicas of each other. […] One treatment group of four animals in each experiment was a vehicle treated group. In addition to the vehicle treated group, the effects of DMI at 6 mg/kg, 12 mg/kg, 30 mg/kg, 60 mg/kg and 120 mg/kg and LOR at 5 mg/kg were tested in experiments 1 and 2. […] In experiments 5 and 6 the effects of DLX at 6 mg/kg, 12 mg/kg, 30 mg/kg, 60 mg/kg, 120 mg/kg and LOR at 5 mg/kg were tested. […]

[2] = system: Male Sprague Dawley rats; assay: Forced Swim Test (Acute), FST; assay type: in vivo
Procedure: The Forced Swim test (FST) is a commonly used procedure to screen compounds for possible antidepressant properties. This test is also known as the behavioral despair test. Rodents placed in […] tanks filled with water present a wide variety of escape or immobility behaviors. Antidepressant drugs from different classes markedly increase escape behaviors and/or decrease latency or duration of immobility.
Venlafaxine and desipramine were dissolved in water. All drugs and their vehicles were administered orally (p.o.) by gavage in a volume of 5 mL/kg.
Male Sprague Dawley rats (140 to 160 g) from Charles River Laboratories Wilmington, Mass. were used. The animals went through a five-day quarantine period before being subjected to the experimental procedure.
Animals were housed in groups of four in plastic cages at an ambient temperature of 21° C. to 23° C. with an automated 12 hour light/dark cycle and access to water and commercial rodent food ad libitum. Animals were not handled more than for the routine bedding change prior to pre-test swim session.
Each experiment consisted of seven treatment groups with n=4 animals per group. A total of 28 animals per experiment were used. Two consecutive experiments (1 and 2, 3 and 4, and 5 and 6) were exact replicas of each other. […] One treatment group of n=4 animals in each experiment was a vehicle treated group. […] In experiments 5 and 6 the effects of venlafaxine and maprotyline at 12 mg/kg, 30 mg/kg, and 60 mg/kg were tested.
The basic apparatus consisted of a cylinder (46 cm tall×˜20 cm diameter) filled with water to 30 cm deep, at a temperature of 25±1° C. The automated version of the FST was used to perform the experiments. Plumbing for automatic filling and emptying water connected the four cylinders. Cylinders were placed in the dividing chambers 25 cm wide to separate animals visually. Each 5-minute experimental session was videotaped and analyzed in real time by computer software (Clever Systems, Inc.) for four animals at a time. The immobility, swimming, climbing and escape times were recorded by the software. The four activities are defined as follow. Immobility: the animal floats motionlessly or makes only those movements necessary to keep its head above water; Climb: the animal vigorously moves vertically while scratching the wall around the cylinder; Swim: the animal moves horizontally around in the cylinder more than necessary to keep its head above water; and Escape: sum of all vigorous active movements.
The ability of a test compound to decrease the duration or frequency of immobility, or changes in swimming, climbing and escape times, was measured using the FST procedure described above. […] The analysis of the results in the studies described was focused on the immobility time during 5-minute test session.
There were two swim sessions in each experiment. First, a pre-test swim session for 15 minutes was performed. Following 48 hours later was a test session of 5-minute duration. Upon completion of a swim session, each animal was placed under a heat lamp in a cage with soft bedding for approximately 15 minutes to prevent hypothermia.
Animals were pre-treated with a vehicle or test compound after completing the pre-test swim session, then 24 hours later and then shortly prior to the 5-minute test session; i.e., three injections were given to each animal between the two swim sessions that occurred on 3 consecutive days.
Data were analyzed using GraphPad Prism software (GraphPad Software, Inc. San Diego, Calif.). For the comparison of the effect of different doses for various drugs on immobility in the FST one-way ANOVA was used followed by Dunnett's multiple comparison test. […] The ED50 and Emax values were statistically compared using two-tail t-test.

[3] = system: Male Wistar rats; assay: Chronic Mild Stress Model (Chronic), sucrose consumption; assay type: in vivo; conditions: stressed animals, once daily i.p.
Excerpt: In the chronic mild stress (CMS) model rats subjected to a variety of mild stressors for a prolonged period of time show, among other behavioural, biochemical and physiological impairments, a substantial decrease in their responsiveness to rewarding stimuli. This deficit is usually monitored by a decrease in the consumption of the 1% sucrose solution, but can also be seen in other tests, such as place preference conditioning or intracranial self-stimulation. Since the subsensitivity to reward appears to reflect anhedonia (inability to experience pleasure), which is a core symptom of major depressive disorders, the CMS procedure may serve as a suitable research tool in studies into the mechanisms of antidepressant action.
Male Wistar rats were brought into the laboratory two months before the start of the experiment. Except as described below, the animals were singly housed with food and water freely available, and were maintained on a 12-h light/dark and in a constant temperature (22±2° C.) and humidity (50±5%) conditions.
The animals were first trained to consume a 1% sucrose solution; training consisted of eight 1 h baseline tests in which sucrose was presented, in the home cage, following 14 h food and water deprivation; the sucrose intake was measured by weighing pre-weighed bottles containing the sucrose solution, at the end of the test. Subsequently, sucrose consumption was monitored, under similar conditions, at weekly intervals throughout the whole experiment.
On the basis of their sucrose intakes in the final baseline test, the animals were divided into two matched groups. One group of animals was subjected to the chronic mild stress procedure for a period of 7 consecutive weeks. Each week of stress regime consisted of: two periods of food or water deprivation, two periods of 45 degree cage tilt, two periods of intermittent illumination (lights on and off every 2 h), two periods of soiled cage (250 ml water in sawdust bedding), one period of paired housing, two periods of low intensity stroboscopic illumination (150 flashes/min), and three periods of no stress. All stressors were 10-14 h of duration and were applied individually and continuously, day and night. Control animals were housed in separate rooms and had no contact with the stressed animals. They were deprived of food and water for the 14 h preceding each sucrose test, but otherwise food and water were freely available in the home cage.
The drugs were administered at approx. 10.00 and the weekly sucrose tests were carried out 24 h following the last drug injections. […]
All results obtained in this study were analyzed by multiple analyses of variance with three between-subjects factors (stress/control, drug treatments and successive sucrose tests). […]

[4] = system: stressed and non-stressed animals; assay: Resident/Intruder Assay (Chronic Social Stress Assay); assay type: in vivo; conditions: Forced Swim Test, 10 mg/kg p.o.
Excerpt: The behavioral resident/intruder assay is used to screen compounds for anti-depressant-like activity.

[5] = system: submissive rats; assay: Dominant-Submissive Relations (DSR) assay: Reduction of Submissive Behavior Model (RSBM) of depression; assay type: in vivo, Male Sprague Dawley rats; conditions: 10.0 mg/kg i.p.
Procedure: The DSR assay is divided into two models: Reduction of Dominant Behavior Model (RDBM) of mania and Reduction of Submissive Behavior Model (RSBM) of depression. The RDBM, wherein the dominant animals are treated with test compound, is predictive of the ability of the test compound to treat mania. The RSBM, wherein the submissive animals are treated with test compound, is predictive of the ability of the test compound to treat depression.
Male Sprague Dawley rats (140 to 160 g) from Charles River Laboratories Wilmington, Mass. were used in this assay. Shipments of rats were received at two-week intervals. Each shipment went through five-day quarantine, one-week acclimation period, and one-week selection process, followed by five-weeks of drug or vehicle treatment to those pairs selected.
Rats were housed four per cage. Access to food was restricted to one hour per day after testing on Monday through Thursday. After testing on Friday, rats had free access to food until being fasted again on Sunday. At no time were the rats deprived of water. The food deprivation periods used had little effect on weight gain as the average weight of rats was about 300 g at the end of the study. At the conclusion of experiment rats were sacrificed by decapitation, the trunk blood and brains were collected for in vitro experiments and drug concentration measurements.
The basic testing apparatus consisted of two chambers connected with a tunnel only large enough to allow one rat to pass through at a time. On the floor, at the mid-point of the tunnel was a container of sweetened milk. This basic apparatus was replicated, so that a total of four pairs of rats can be video tracked simultaneously. The camera can distinguish rats marked by different colors. Thus, the rats' heads were colored for the purpose of video tracking, red in one cage and yellow in the other cage. Only one animal at a time can have comfortable access to the feeder, but both animals can drink milk during the five-minute daily session. During the five-minute daily sessions, time spent in the feeder zone by each rat was recorded by the video tracking software and saved into a text file.
The test began with a random assignment of rats into pairs. Each member of a pair was placed in an opposite chamber of the testing apparatus. The time spent in the feeder zone by each animal was recorded. During the first week (five days) of testing the animals habituate to the new environment. Dominance was assigned to the animal with the highest score during the second week of testing if three criteria were achieved. First, there must have been a significant difference (two-tailed t-test, P<0.05) between the average daily drinking scores of both animals. Second, the dominant animal score must have been at least 25% greater than the submissive animal's score. Finally, there must have been no “reversals” during the pair selection week where the putative submissive rat out-scored its dominant partner on isolated occasions. Ideally there were minimal reversals during the acclimation week as well. About twenty-five to thirty-three percent of the initial animal pairs achieved these criteria and only these pairs were continued in the study.
Significant differences between time spent on the feeder by dominant and submissive rats were determined by ANOVA using GraphPad Prism software (GraphPad Software, Inc. San Diego, Calif.) followed by a two-tailed t-test (P<0.05). Comparisons were made between treatment groups using normalized dominance level values in paired animals. The dominance level is a value that measures social relation between paired subjects. Dominance level (DL)=FTD−FTS where FTD is the feeder time of dominant rats and FTS is the feeder time of submissive rats. The normalization was conducted according to the formula: Dominance Level (week n in %)=(Dominance Level (week n))/(Dominance Level (week 2) […]

CNCCCN1c2ccccc2CCc2ccccc21 [DMI, desipramine, reference compound]
ED50 ([1]; read-out: Immobility ED50): 27.4 mg/kg
ED50 ([1]; read-out: Mobility ED50): 24.4 mg/kg
ED50 ([2]; Rattus norvegicus, po, 5 min, p.o., three administrations, 5-minute test session, read-out: ED50 (immobility)): 2 ± 0.1 mg/kg
Emax (immobility) ([2]; p.o., immobility): 50.0 ± 8.4 s

CN(C)CCCN1c2ccccc2CCc2ccccc21 [Imipramine, imipramine, reference compound]
treatment time until increase in sucrose intake reached statistical significance vs Week 0 [3]: four weeks

O=C1Nc2ccc(Cl)cc2C(c2ccccc2Cl)=NC1O (stereo not shown) [Lorazepam, lorazepam, reference compound]
effect on immobility time ([2]; 1 mg/kg p.o., negative control): no significant effect

COc1ccc(C(CN(C)C)C2(O)CCCCC2)cc1 (stereo not shown) [Venlafaxine, venlafaxine]
treatment time until increase in sucrose intake reached statistical significance vs Week 0 [3]: four weeks
Immobility during 5 min: Week 5 Mean ± SD ([4]; non-stressed): 181.8 ± 27.6
Immobility during 5 min: Week 5 Mean ± SD ([4]; stressed): 190.4 ± 36.8

CNCCC(Oc1ccc(C(F)(F)F)cc1)c1ccccc1 (stereo not shown) [fluoxetine, reference compound]
loss of significant difference between dominant and submissive rats [5]: lost after third week of treatment

From patent US20070155827A1, “USE OF BENZO-FUSED HETEROCYCLE SULFAMIDE DERIVATIVES FOR THE TREATMENT OF DEPRESSION” (priority 2005, published 2007)
